Oligonucleotides are written 5' to 3', each unit as a sugar letter and its base; * is a phosphorothioate linkage, no mark a phosphodiester; rarer units and linkages stand in square brackets, end groups in braces. Plain capitals give the bases only. l = locked nucleic acid (LNA); [5mC] = 5-methylcytosine; d = 2'-deoxy (DNA)
Assays:
RTEL1 mRNA [1] = test: RTEL1 mRNA dose response in human MDA-MB-231 cell line (Example 1.2); type: cell-based; details: for IC50: RTEL1 mRNA, MDA-MB-231 cells, 3 days, n=2; for mRNA level at Max KD in MDA-MB-231: relative RTEL1 mRNA level at 50 μM oligonucleotide, PBS treated samples as control
Procedure: Human MDA-MB-231 cell lines were purchased from ATCC and maintained as recommended by the supplier in a humidified incubator at 37° C. with 5% CO2. For assays, 3500 cells/well of were seeded in a 96 multi well plate in culture media. Cells were incubated for 24 hours before addition of oligonucleotides dissolved in PBS. Highest screening concentration of oligonucleotides: 50 μM and subsequent 1:1 dilutions in 8 steps. 3 days after addition of oligonucleotides, the cells were harvested. RNA was extracted using the PureLink™ Pro 96 RNA Purification kit (Thermo Fisher Scientific) according to the manufacturer's instructions and eluated in 50 μl water. The RNA was subsequently diluted 10 times with DNase/RNase free Water (Gibco) and heated to 90° C. for one minute.
For gene expressions analysis, One Step RT-qPCR was performed using qScript™ XLT One-Step RT-qPCR ToughMix®, Low ROX™ (Quantabio) in a duplex set up. The following TaqMan primer assays were used for qPCR: RTEL1_Hs00249668_m1 [FAM-MGB] and endogenous control GUSB_Hs99999908_m1 [VIC-MGB]. All primer sets were purchased from Thermo Fisher Scientific.

HBV cccDNA = HBV cccDNA quantification by qPCR in HBV infected PHH cells (Example 1.1); type: cell-based; details: 16 days-treatment, % of average no drug control (NDC)
Procedure: (§1) Fresh primary human hepatocytes (PXB-PHH) harvested from humanized mice (uPA/SCID mice)-herein called PHH-were obtained from PhoenixBio Co., Ltd (Japan) in 96-well format and cultured in modified hepatocyte clonal growth medium (dHCGM). dHCGM is a DMEM medium containing 100 U/ml Penicillin, 100 μg/ml Streptomycin, 20 mM Hepes, 44 mM NaHCO3, 15 μg/ml L-proline, 0.25 μg/ml Insulin, 50 nM Dexamethazone, 5 ng/ml EGF, 0.1 mM Asc-2P, 2% DMSO and 10% FBS (Ishida et al., 2015).
(§2) Cells were cultured at 37° C., in a humidified atmosphere with 5% CO2. Culture medium was replaced every 2 days until harvest, except over the weekend.
(§3) PHH were incubated with HBV (purified from chronic hepatitis B (CHB) individuals) at multiplicity of infection (MOI) of 40 together with 4% PEG for 24 hr. The virus inoculum was removed the following day and cells were washed 3 times with PBS before addition of fresh medium. To allow for cccDNA establishment, compound treatment in PHH was started at day 3 post HBV infection. The cells were dosed in a 1:10 dilution step dose response manner starting at 10 μM. On Day 3, Day 5 and Day 7 post HBV infection, the cells were dosed with oligonucleotide compounds in a final volume of 100 μl/well of dHCGM Medium. 10 nM Entecavir (ETV) treatment was started at Day 5 post infection, ensuring real cccDNA measurement by qPCR, and medium including 10 nM ETV was changed every two days (except over the weekend) until cells were harvested at Day 16 post HBV infection. The experiments were performed in biological triplicates.
DNA was extracted from HBV infected Primary Human Hepatocytes using an SDS Lysis Buffer (50 mM Tris pH8, 5 mM EDTA, 1% SDS). After lysing cells in 80 μl SDS lysis buffer, samples were frozen at −80° C. for minimum 2 hours. […] After incubation, 3 volumes of ChIP DNA binding buffer from ZYMO Research Genomic DNA Clean & Concentrator kit (ZymoResearch, cat no. D4067) were added and DNA was purified following the manufacturer's protocol. DNA was eluted in 20 μl DNA Elution buffer and qPCR was performed using 2 μl DNA.
The cccDNA expression levels were quantified in technical duplicates using the comparative cycle threshold 2-ΔΔCt method. Quantitative real-time polymerase chain reaction measurements were performed on the QuantStudio 12K Flex PCR System (Applied Biosystems). Normalization was done to mitochondrial DNA (mitoDNA) and to non-treated cells as endogenous control using the Fast SYBR™ Green Master Mix (Life Technologies, Cat. No 4385612). Cycler settings were adjusted to incubation at 95° C. for 5 min, then 45 cycles of 95° C. for 1 sec and 60° C. for 35 sec. Primers used are listed Table 17 below (all probes in the chart are SYBR Green):
PHH were cultured as described in the Materials and Methods section. […]

RTEL1 mRNA [2] = test: RTEL1 mRNA qPCR in HBV infected PHH cells (Example 1.1); type: cell-based, human; details: 16 days-treatment, % of average no drug control (NDC)
Procedure: as §1, §2, §3
Total mRNA was extracted from the cells using a Qiagen BioRobot Universal System and the RNeasy 96 well Extraction Plates (RNeasy 96 BioRobot 8000 Kit (12)/Cat No. ID: 967152) according to the manufacturer's protocol. The mRNA expression levels were analyzed using Real-time PCR on the ABI QuantStudio™ 12k Flex. […] Results were normalized over the human ACT B endogenous control. The mRNA expression was analyzed using the comparative cycle threshold 2-ΔΔCt method normalized to the reference gene ACT B and to non-treated cells.
PHH were cultured as described in the Materials and Methods section. HBV infected PHH cells were treated with the compounds from Table 6 as described above. […] The results are shown in Table 18 as % of the average no drug control (NDC) samples (i.e. the lower the value the larger the inhibition/reduction).

Substance | IC50 (RTEL1 mRNA [1]) [nM] | mRNA level at Max KD in MDA-MB-231 (RTEL1 mRNA [1]) | cccDNA % of control (Mean) (HBV cccDNA) | RTEL % of control (Mean) (RTEL1 mRNA [2])
AATTttacatactctgGT (lA*lA*lT*lT*dT*dT*dA*dC*dA*dT*dA*dC*dT*dC*dT*dG*lG*lT) [CMP ID NO 243_1] | 600 | 38% of control | 28 % of control | 19 % of control
AAttttacatactctGGTC (lA*lA*dT*dT*dT*dT*dA*dC*dA*dT*dA*dC*dT*dC*dT*lG*lG*lT*l[5mC]) [CMP ID NO 244_1] | 300 | 14% of control | 3 % of control | 24 % of control
CTttattataactTgaAtCTC (l[5mC]*lT*dT*dT*dA*dT*dT*dA*dT*dA*dA*dC*dT*lT*dG*dA*lA*dT*l[5mC]*lT*l[5mC]) [CMP ID NO 246_1, RTEL1 alternating flank LNA gapmer] | 400 | 18% of control | 39 % of control | 21 % of control
TTacatactctggtCAAA (lT*lT*dA*dC*dA*dT*dA*dC*dT*dC*dT*dG*dG*dT*l[5mC]*lA*lA*lA) [CMP ID NO 245_1] | 900 | 9% of control | 21 % of control | 35 % of control

From US20240409939A1 (Hoffmann-La Roche Inc., priority 2021, published 2024)
